In the assay the test system is CEM cells HIV-1 protection, formazan growth assay. The assay can be described thus: NCI AIDS Antiviral Assay. The conditions noted are these: for IC50: measured here: growth of uninfected CEM cells. An outline of the steps:
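Steps: treat uninfected and HIV-1-infected human CEM cells at five drug levels; quantify growth by soluble formazan; retest any compound reaching 50% protection; classify actives from the retest.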

Each structure is given as a SMILES string. Activity calls are given as the source filed them.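 How the source made its calls: active means compounds giving half or more protection of infected cells from virus-caused growth loss, again on retest; inactive means the rest.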

The results in this text go back to PubChem BioAssay AID179 (DTP/NCI, 2004).

As a reminder, the EC50 is the concentration needed to bring the measured effect to its halfway point. Usually IC50 stands for the concentration at which inhibition is half-maximal. A low value points to greater potency in that assay.

`O=C1OC(=O)c2c1cc1cc3c(cc1c2-c1ccc2c(c1)OCO2)OCO3`: the result was inactive.
For the molecule `c1ccc(-c2nnc3nn4c(-c5ccccc5)cnnc4c3c2-c2ccccc2)cc1`, the EC50 was more than 9.33 µM and the IC50 was more than 9.33 µM.
Regarding `C/C(=N/O)C1CC=C(S(=O)(=O)c2ccccc2)C1` (stereo not drawn), the result was inactive.
As for `CCOP(=O)(OCC)c1ccc[nH]1`, the EC50 is more than 200 µM and the IC50 is more than 200 µM.
Regarding `O=C(CN1CCN(Cc2ccccc2)CC1)c1ccc2[nH]c(=O)oc2c1`, the EC50 was more than 200 µM and the 50% inhibitory concentration (IC50) stood at 158 µM.
The corresponding values for `[Cu+2].[Cu+2].[NH-]c1c(N=Nc2ccc(/C=C/c3ccc(N=Nc4cc(S(=O)(=O)[O-])c5cccc(S(=O)(=O)[O-])c5c4[NH-])cc3S(=O)(=O)[O-])c(S(=O)(=O)[O-])c2)cc(S(=O)(=O)[O-])c2cccc(S(=O)(=O)[O-])c12.[Na+]` are 10.5 µM and 24 µM.
The corresponding values for `CC(C)(C)SSC(C)(C)C` are more than 200 µM and more than 200 µM.
The corresponding values for `Cc1ccc(S(=O)(=O)N/N=C2\CCCCCCCCCCC2CN(C)C)cc1` (stereo not drawn) are more than 200 µM and 28.2 µM.
In the case of `Cc1ccsc1/C=N/NC1=NCCN1`, the EC50 was more than 200 µM and the IC50 was more than 100 µM.
Regarding `Cc1c(C)c2c(c(N)c1C#N)C(=O)N(Nc1ccccc1)C2=O`, the EC50 is more than 200 µM and the IC50 was 79.4 µM.
On the same counts, the results for `Cc1cc(O)c(C=O)c2c1C(=O)Oc1c(CO)c(O)c3c(c1O2)C(O)OC3=O` (stereo not drawn) are more than 57.5 µM and more than 57.5 µM.
The corresponding values for `O=[N+]([O-])c1ccc(Cl)cc1-n1nc(-c2ccccc2)cc1-c1ccccc1` are more than 200 µM and more than 200 µM.
On the same counts, the results for `O=C(CC(=O)N1N=C(n2ccc3ccccc32)CC1c1ccccc1)Nc1ccccc1Cl` (stereo not drawn) are more than 8.32 µM and more than 8.32 µM.
As for `Cc1ccc(NC(=O)/C(CC2N=c3c(ccc4c(O)c5ccccc5c(O)c34)=NC2O)=N/NC(C)(C)C)cc1` (stereo not drawn), the EC50 was more than 10 µM and the IC50 is more than 10 µM.
Consider `Cc1ccc(S(=O)(=O)N/N=C/C=N/NS(=O)(=O)c2ccc(C)cc2)cc1`, for which the outcome was inactive.
`O=c1c(SCc2ccc(F)cc2)c(SCc2ccc(F)cc2)cnn1-c1ccccc1`: the EC50 was more than 15.8 µM and the 50% inhibitory concentration (IC50) was more than 15.8 µM.
With `CC1(C)OC2OC(CO)C(N)C2O1` (stereo not drawn), the result was inactive.
For `c1ccc2c(c1)cc1c3[nH]c4ccccc4c3ccn21`, the EC50 was more than 200 µM and the 50% inhibitory concentration (IC50) stood at 6.76 µM.
On the same counts, the results for `O=C(CCCN1CCC2(CC1)C(=NC1CCCCC1)NC(=O)N2c1ccccc1)c1ccc(F)cc1` are more than 200 µM and 93.3 µM.
On the same counts, the results for `C[C@@H]1OCN(C(=O)c2ccccc2SSc2ccccc2C(=O)N2CO[C@H](C)[C@H]2C(=O)O)[C@H]1C(=O)O` are more than 200 µM and more than 200 µM.
Take `Cn1cc(NC(=O)c2cc(NC(=O)CCCCCC(=O)Nc3cc(C(=O)Nc4cc(C(=O)NCCC(=N)N)n(C)c4)n(C)c3)cn2C)cc1C(=O)NCCC(=N)N`: the half-maximal effective concentration (EC50) was 53.7 µM and the IC50 came out at 67.6 µM.
As to `Nc1ccc(SCc2ccc(C(=O)O)cc2)cc1`, the EC50 is more than 28.2 µM and the IC50 is more than 28.2 µM.
As to `N#C/C(=C\c1ccccc1Cl)c1ccccc1`, the EC50 was more than 200 µM and the IC50 turned out to be 72.4 µM.
In the case of `N#Cc1c(C#N)c(-c2ccco2)n(-c2ccccc2)c1N`, the EC50 was more than 200 µM and the IC50 was more than 200 µM.
`CC(C)O/N=C/c1cc(NC(=S)OC(C)C)ccc1Cl`: the 50% effective concentration (EC50) was 0.0447 µM and the half-maximal inhibitory concentration (IC50) worked out at 22.9 µM.
On the same counts, the results for `COc1ccc(NC(=O)C(=O)C2NC(=S)NC2=O)c(OC)c1` (stereo not drawn) are more than 776 µM and more than 776 µM.
The corresponding values for `Cc1cccc2c1C(=O)[C@](C)([C@]1(C)Nc3cccc(C)c3C1=O)N2` are more than 200 µM and 17.4 µM.
The corresponding values for `CCCCCc1c2nc(c(CCCCC)c3ccc([nH]3)c(CCCCC)c3ccc([nH]3)c(CCCCC)c3nc1C=C3)C=C2` are more than 200 µM and more than 200 µM.
Turning to `S=C1Cc2c(-c3ccc(Br)cc3)cc(-c3ccccc3)nc2-c2ccccc2N1`, the EC50 was more than 151 µM and the IC50 was 6.17 µM.
Consider `CC[Si](CC)(CC)OC(C#N)c1ccc2c(c1)OCO2` (stereo not drawn), for which the outcome was inactive.
In the case of `CC(=O)/C(=C/n1c(=S)sc2ccccc21)C(=O)Nc1ccccc1`, the EC50 is more than 200 µM and the IC50 worked out at 138 µM.
Turning to `C=CCC(CC=O)(C(=O)OCC)C(=O)OCC`, the EC50 is more than 200 µM and the IC50 was 110 µM.
On the same counts, the results for `O=c1[nH]cnc2c1ccn2C1OC(CO)C(O)C1O` (stereo not drawn) are more than 20 µM and 2.04 µM.
On the same counts, the results for `NCCCS(=O)(=O)O` are more than 200 µM and more than 200 µM.
In the case of `Nc1ncnc2c1ncn2C1CC(CO)CO1` (stereo not drawn), the 50% effective concentration (EC50) is 209 µM and the IC50 was determined as 214 µM.
For `CC(=O)OC1CCC2(C)C(CCC3C4CCC(C(C)OC(C)=O)C4NC(=O)CC32)C1` (stereo not drawn), the result was inactive.
In the case of `CN(C)c1ccc2c(c1)C(=O)N(OS(=O)(=O)c1ccc([N+](=O)[O-])cc1)C2=O`, the EC50 is more than 47.9 µM and the IC50 was determined as 20.4 µM.
The corresponding values for `N#CC(C#N)=Cc1cccc(Cl)c1` are more than 117 µM and 22.4 µM.
On the same counts, the results for `O=c1[nH]c2cc(Cl)ccc2nc1/C(=N\O)C(O)c1cccc([N+](=O)[O-])c1` (stereo not drawn) are more than 661 µM and 646 µM.
On the same counts, the results for `CCOC(=O)Nc1ccc2nc(N3CCCCCC3)sc2c1` are more than 58.9 µM and 1.02 µM.
Turning to `COc1ccc(/C=C2\C(=O)Nc3ccccc32)cc1OC`, the EC50 was more than 1.95 µM and the half-inhibitory concentration (IC50) is more than 1.95 µM.
Regarding `CCc1ccccc1NC(=O)CC1NC(=O)CS1` (stereo not drawn), the EC50 is more than 339 µM and the half-inhibitory concentration (IC50) is 214 µM.
On the same counts, the results for `CS(=O)(=O)N1CC(CCl)c2ccc(NO)cc21` (stereo not drawn) are more than 200 µM and 3.72 µM.
On the same counts, the results for `CCCCCCC[CH2][Sn]([CH2]CCCCCCC)([O]c1cccc2cccnc12)[O]c1cccc2cccnc12` are more than 21.4 µM and more than 21.4 µM.
On the same counts, the results for `CC[N+](C)(C)CC(O)(O)C(F)F` are more than 200 µM and more than 200 µM.
Take `COC1OC(C)/C(=N/O)C2OC(C)(C)OC12` (stereo not drawn): the EC50 is more than 1070 µM and the 50% inhibitory concentration (IC50) was more than 1070 µM.
Consider `O=c1[nH]c2cc([N+](=O)[O-])ccc2nc1/C(=N/Nc1ccccc1)C(O)c1ccc(C(O)/C(=N\Nc2ccccc2)c2cnc3cc([N+](=O)[O-])ccc3n2)cc1` (stereo not drawn), for which the EC50 is more than 49 µM and the half-maximal inhibitory concentration (IC50) stood at 17 µM.
The corresponding values for `CC(C)(C)c1ccc(O)c(C(O)c2ccncc2)c1` (stereo not drawn) are more than 200 µM and 79.4 µM.
On the same counts, the results for `CO/C(N)=C(\C#N)N=Cc1cccnc1` are more than 200 µM and more than 200 µM.
The corresponding values for `O=c1oc(C(C(F)(F)F)C(F)(F)F)nc2ccccc12` are more than 200 µM and more than 200 µM.
Turning to `CN1CCN(C(=S)N(C(=O)c2ccc(Cl)cc2)C2CCCCC2)CC1`, the EC50 is more than 95.5 µM and the IC50 was found to be 45.7 µM.
On the same counts, the results for `Cc1cc(Cl)ccc1NC(=O)CCCC(=O)C1CCC/C1=N\NC(=O)CC#N` (stereo not drawn) are more than 64.6 µM and more than 64.6 µM.
